This is an account of results in PMC9728921, “Characterization of a KDM5 small molecule inhibitor with antiviral activity against hepatitis B virus” (PLOS ONE, 2022).

“Also recorded” adds a separate entry of the source.

Data set [1] relates to H3K4me3:H3. Put plainly: Global H3K4me3:H3 ratio by ELISA in HBV-infected PHH. It counts as cell-based, human. Particulars: single pulse dose; day nine. As for the experimental part: For the pulse dose regimen, medium containing compound was removed after two hours incubation and replaced with fresh maintenance medium every three to four days. Cells in the pulse dose experiment received only one dose of compound (Day = 0). Histones were enriched from tissue and PBMC samples using the AbCam total histone extraction kit (Cambridge, UK; ab113476) according to the manufacturer’s protocol after cell/tissue dissociation with an IKA T10 TURRAX homogenizer (Wilmington, NC; […] Histones were enriched from 500,000 to 750,000 PHH. PHH monolayers were washed once with cold (4°C) 1X DPBS (Dulbecco’s phosphate buffered saline; 21-031-CV, Corning Inc.). Cold triton extraction buffer (TEB): 1X DPBS, 0.5% triton X-100 (Sigma-Aldrich, T9284), 2 mM phenylmethylsulfonyl fluoride (PMSF; Thermo Fisher Scientific, 36978), was added to the cell monolayer at a density of 1 x 10^6 cells/mL. After 10-minute incubation in TEB at 4°C, the cell monolayer was scraped and cells were pelleted by centrifuged at 1200 rpm at 4°C for 10 minutes. […] Total protein concentration of all samples following histone enrichment was determined using a bicinchoninic acid (BCA) assay (Thermo Fisher Scientific; 23225). […] Absorbance of each well was measured at 450 nm within five minutes using a SpectraMax Plus 384 Microplate Reader (Molecular Devices; PLUS 384).
In general terms: An ELISA detects its analyte on a solid surface through an enzyme-linked reagent.

Data set [2] deals with HMT or HDAC enzymes. Put plainly: Panel of HMT and HDAC enzymes. It counts as biochemical. The settings on record: no measurable inhibitory activity; read-out: IC50 against any of the HMT or HDAC enzymes tested. Here is the method:
Histone methyltransferase assays were performed in 96-well half-area optiplates (PerkinElmer) at room temperature. All concentrations are final unless noted otherwise. Compounds were serially diluted in DMSO and the final DMSO concentration was 1%. […] The plate was sealed, mixed on a Titramax plate shaker at 1200 rpm for 30 sec, and incubated at room temperature for 60 min. […] The plate was sealed, mixed as previously noted, incubated overnight, and read on a TopCount plate reader (PerkinElmer). The HDAC-1 histone deacetylase assay was tested using the FLUOR DE LYS platform ([…]). Inhibition of SIRT-1 histone deacetylase was tested with the AlphaLISA detection system. All assays were conducted at room temperature with a final DMSO concentration of 1%. […] After a 60-minute incubation, the reaction was quenched with 10 μL AlphaLISA H3K4-specific Acceptor beads (1:200) in Epigenetics Buffer, and the reaction mixture was incubated for 60 min. The Donor beads were diluted 1:200 into Epigenetics Buffer in the dark and 10 μL of this mixture was added to each well and incubated for another 60 min in the dark. The assay plates were read on an Enspire plate reader (PerkinElmer) using a standard AlphaLISA program. […] Data was analyzed using GraphPad Prism 6.0 (La Jolla, CA). […] IC50 values were calculated as an average of at least two independent experiments.

The target of data set [3] is T1, NSD3 (Homo sapiens, UniProt Q9BZ95).
T1 construct: 1021-1322; purchased RBC (read as Reaction Biology Corporation, named)
T1 sequence (Q9BZ95 1021-1322): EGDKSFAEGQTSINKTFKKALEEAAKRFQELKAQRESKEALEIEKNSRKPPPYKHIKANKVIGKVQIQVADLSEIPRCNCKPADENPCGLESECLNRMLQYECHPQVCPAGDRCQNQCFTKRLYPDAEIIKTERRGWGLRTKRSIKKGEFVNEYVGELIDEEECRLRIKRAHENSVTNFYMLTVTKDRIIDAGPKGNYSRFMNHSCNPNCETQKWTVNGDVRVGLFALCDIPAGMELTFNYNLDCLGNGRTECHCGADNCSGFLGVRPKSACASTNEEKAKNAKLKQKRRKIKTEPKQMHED
Put plainly: Histone methyltransferase enzymatic assay, NSD3. The settings on record: enzyme conc. 100 nM. It counts as biochemical. Here is the method: (§1) Histone methyltransferase assays were performed in 96-well half-area optiplates (PerkinElmer) at room temperature. All concentrations are final unless noted otherwise. Compounds were serially diluted in DMSO and the final DMSO concentration was 1%. A 24 μL reaction mixture contained compound, enzyme, 200 nM of nucleosome or histone substrate, 400 nM ^3H-SAM (83.1 Ci/mmol), 50 mM Tris-HCl (pH 8.0), 50 mM NaCl, 5 mM MgCl2, 1 mM DTT, and 0.01% Tween-20. The plate was sealed, mixed on a Titramax plate shaker at 1200 rpm for 30 sec, and incubated at room temperature for 60 min. The reaction was quenched by addition of 24 μL mixture containing 5 mg/mL PVT-PEI beads and 300 μM unlabeled SAM in water. The plate was sealed, mixed as previously noted, incubated overnight, and read on a TopCount plate reader (PerkinElmer).
(§2) Data was analyzed using GraphPad Prism 6.0 (La Jolla, CA). […] IC50 values were calculated as an average of at least two independent experiments.

Data set [4] is described as follows: Cell-associated GS-080 exposure and half-life in PHH (LC-MS). It counts as in vitro ADME, human. As for the experimental part: PHH were infected with HBV for three days prior to initiation of GS-5801 treatment. PHH were dosed with vehicle or 1 µM GS-5801once for three days (three day exposure; continuous dosing) or once for two hours (two hour exposure; pulse dosing). […] (C) Pharmacokinetic parameters calculated included the half-life (t1/2), maximum concentration (Cmax), and area under the curve (AUClast).

The target of data set [5] is T2, NSD1 (Homo sapiens, UniProt Q96L73).
T2 construct: 1538-2696; purchased RBC (read as Reaction Biology Corporation, named)
T2 sequence (Q96L73 1538-2696): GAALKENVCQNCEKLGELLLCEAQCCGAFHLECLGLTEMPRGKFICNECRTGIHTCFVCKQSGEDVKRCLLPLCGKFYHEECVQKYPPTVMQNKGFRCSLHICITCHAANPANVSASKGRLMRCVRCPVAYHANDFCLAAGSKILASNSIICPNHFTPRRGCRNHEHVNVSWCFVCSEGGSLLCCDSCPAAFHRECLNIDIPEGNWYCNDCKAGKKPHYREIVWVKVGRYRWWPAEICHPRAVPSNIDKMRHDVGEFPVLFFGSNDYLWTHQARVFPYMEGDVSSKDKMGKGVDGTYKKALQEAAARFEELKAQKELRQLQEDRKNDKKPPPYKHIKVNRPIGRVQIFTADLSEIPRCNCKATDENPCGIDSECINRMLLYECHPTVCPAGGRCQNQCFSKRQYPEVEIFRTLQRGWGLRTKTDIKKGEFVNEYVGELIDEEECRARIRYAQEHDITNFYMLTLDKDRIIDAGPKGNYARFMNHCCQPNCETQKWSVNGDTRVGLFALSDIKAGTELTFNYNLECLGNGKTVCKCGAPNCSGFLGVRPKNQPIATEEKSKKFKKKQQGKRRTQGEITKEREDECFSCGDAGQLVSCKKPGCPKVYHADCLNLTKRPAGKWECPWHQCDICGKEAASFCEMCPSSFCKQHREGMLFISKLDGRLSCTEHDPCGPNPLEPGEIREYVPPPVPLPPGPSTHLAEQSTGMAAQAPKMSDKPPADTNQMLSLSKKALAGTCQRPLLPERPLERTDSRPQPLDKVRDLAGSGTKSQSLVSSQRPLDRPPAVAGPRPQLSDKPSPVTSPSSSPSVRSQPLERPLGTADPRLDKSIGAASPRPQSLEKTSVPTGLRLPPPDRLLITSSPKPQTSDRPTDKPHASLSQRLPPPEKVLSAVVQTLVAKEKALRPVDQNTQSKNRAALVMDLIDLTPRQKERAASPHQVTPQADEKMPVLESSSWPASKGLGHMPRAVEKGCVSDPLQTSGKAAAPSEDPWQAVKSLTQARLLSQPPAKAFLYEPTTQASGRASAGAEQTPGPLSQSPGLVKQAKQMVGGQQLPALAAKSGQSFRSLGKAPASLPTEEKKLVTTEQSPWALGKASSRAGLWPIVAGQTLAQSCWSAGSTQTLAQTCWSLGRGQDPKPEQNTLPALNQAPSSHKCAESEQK
The data set is described as follows: Histone methyltransferase enzymatic assay, NSD1. The settings on record: enzyme conc. 50 nM. It counts as biochemical. Here is the method:
as §1, §2

Take `CCOC(=O)c1ccnc(CNCC(=O)N(CC)CCN(C)C)c1` [GS-5801]: the “H3K4me3:H3 level” value in data set [1] is given as “almost back to baseline levels; also recorded: near baseline levels”.

In general, IC50 refers to the concentration needed to halve the response being measured. In the case of `CCN(CCN(C)C)C(=O)CNCc1cc(C(=O)O)ccn1` [GS-080], the IC50 in data set [2], in data set [3] and in data set [5] was greater than 100 µM in each case. In addition, in data set [4] (PHH dosed with 1 µM GS-5801, two-hour pulse vs three day exposure), the “cell-associated GS-080 Cmax and AUClast, pulse compared to continuous dosing” value was “two-fold lower Cmax and AUClast values”. The half-life at 1 µM in data set [4] (human, primary human hepatocytes (PHH), cell-associated, PHH, 1 uM, uninfected PHH) is 42 to 66 h.
